Laboratory results published in patent publication US20050197372A1 (priority 2002, published 2005).

Key:
[1] = test system: platelet/endothelial tetraspan antigen -3 (PETA-3, CD151); assay: Whole blood flow cytometry, PETA-3 expression; assay type: cell-based, human; details: for Expression of platelet/endothelial tetraspan antigen -3 (PETA-3, CD151): baseline 88.7 ± 24.2
Experimental: (§1) None of them received aspirin or any other anti-platelet agents. All subjects underwent blood sampling after at least 30 minutes of rest and 2 or more hours of fasting. Blood was drawn between 8 and 10 a.m. in order to avoid any diurnal influence and sampled from an antecubital vein using a 21-gauge butterfly needle containing 3.8% sodium citrate (1:9 volume) after having discarded the first 1.5 ml of free running blood. Eleven Vacutainer tubes (4.5 ml) were collected for a total of 49 ml of whole blood-citrate mixture from each study participant. One tube was kept as an internal control and was incubated with buffer solution. […] To avoid possible observer bias, blood samples were coded and blinded. Sampling procedures, and platelet studies were performed by individuals unaware of the protocol.
(§2) The expression of platelet receptors was determined by using the following monoclonal antibodies: CD31 (platelet endothelial cell adhesion molecule (PECAM-1), CD41 (glycoprotein [GP] IIb/IIIa, (IIb (3), CD42b (GP Ib), CD 51/CD61 ((v (3, or vitronectin receptor), CD62p (P-selectin), CD107a (lysosome associated membrane protein-1; LAMP-1), CD 107b (LAMP-2), CD151 (platelet/endothelial tetraspan antigen-3; PETA-3), and PAC-1 for fibrinogen-platelet (PharMingen, San Diego, Calif.). Platelet-leukocyte interactions were assessed by using dual antibodies for a pan-platelet marker (CD 151), together with CD14, a monocyte/macrophage marker. The blood-citrate mixture (50 μl) was diluted with 450 μl Tris buffered saline (TBS) (10 mmol/L Tris, 0.15 mol/L sodium chloride) and mixed by gently inverting an Eppendorf tube 2 times. Five μl of the corresponding antibodies were then added to each solution and the samples were incubated for 30 minutes. After incubation, 400 μl of 2% buffered paraformaldehyde was added for fixation. The samples were analyzed by a Becton Dickinson FACScan flow cytometer set up to measure fluorescent light scatter, as described in Gurbel P A, et al., J Am Coll Cardiol. 1998; 31: 1466-1473. The data were collected in list mode files and then analyzed. P selectin was expressed as percent positive cells as described in Gurbel P A, et al, Am Heart J 2000; 139: 320-328. Other antigens were expressed as log mean fluorescence intensity.

[2] = test system: lysosome associated membrane protein -2 (LAMP-2, CD107b); assay: Whole blood flow cytometry, LAMP-2 expression; assay type: cell-based, human; details: for Expression of lysosome associated membrane protein -2 (LAMP-2, CD107b): baseline 6.6 ± 2.1
Experimental: as §1, §2

[3] = test system: glycoprotein Ib (GPIb, CD42b); assay: Whole blood flow cytometry, GP Ib expression; assay type: cell-based, human; details: for Expression of glycoprotein Ib (GPIb, CD42b): baseline 246.4 ± 26.7
Experimental: as §1, §2

[4] = test system: human platelets (platelet-rich plasma); assay: Platelet-rich plasma aggregation induced by 5 μM ADP; assay type: cell-based; details: for Platelet rich plasma aggregation induced by 5 μM ADP: 60 minutes at 37° C., baseline 75 ± 8
Experimental: as §1
The citrate and whole blood mixture were centrifuged at 1200 g for 5 minutes in order to obtain platelet-rich plasma (PRP) which was kept at room temperature for use within 1 hour. Platelet counts were determined for each PRP sample with a Coulter Counter ZM (Coulter Co., Hialeah, Fla.). Platelet numbers were adjusted to 3.50×10 ^8/ml with homologous platelet-poor plasma. Platelet aggregation (PA) was induced by 5 μM ADP, and 5 μM epinephrine. All agonists were obtained from Chronolog Corporation (Havertown, Pa.). Aggregation studies were performed using a 4 channel Chronolog Lumi-Aggregometer (model 560-Ca). Aggregation was expressed as the maximum percentage of light transmittance change (% max) from the baseline at the end of the recording time, using platelet-poor plasma as a reference. Aggregation curves were recorded for 6 minutes and analyzed according to internationally established standards. Ruggeri Z M, Semin Hemat 1994; 31: 229-239.

[5] = test system: platelet-leukocyte microparticles (CD151 + CD14); assay: Whole blood flow cytometry, platelet-leukocyte microparticles; assay type: cell-based, human; details: for Formation of platelet-leukocyte microparticles (CD151 + CD14): baseline 92.2 ± 19.3
Experimental: as §1, §2

[6] = test system: lysosome associated membrane protein -1 (LAMP-1, CD107a); assay: Whole blood flow cytometry, LAMP-1 expression; assay type: cell-based, human; details: baseline 8.7 ± 3.2
Experimental: as §1, §2

P-selectin (CD 62p) = assay: Whole blood flow cytometry, P-selectin expression; assay type: cell-based, human; details: for Expression of P-selectin (CD 62p): baseline 9.1 ± 3.8
Experimental: as §1, §2

[7] = test system: platelet glycoprotein IIb/IIIa antigen (GPIIb, CD41); assay: Whole blood flow cytometry, GP IIb/IIIa antigen expression; assay type: cell-based, human; details: for Expression of platelet glycoprotein IIb/IIIa antigen (GPIIb, CD41): baseline 521.8 ± 98.2
Experimental: as §1, §2

[8] = test system: platelets (agglutination with fibrinogen-coated beads); assay: Ultegra rapid platelet-function assay (RPFA-ASA); assay type: cell-based, human; details: baseline 159 ± 27
Experimental: as §1
A rapid platelet-function assay cartridge test (RPFA-ASA, Ultegra® Accumetrics, Inc., San Diego, Calif., USA), using polystyrene beads coated cartridges with lyophilized human fibrinogen-coated microparticles, and propyl gallat served as an agonist. The whole blood citrate mixture was added to the cartridge, and agglutination between platelets and coated beads was recorded. The data mirrored turbidometric platelet aggregation and reflected the degree of platelet prostaglandin blockade. Smith J W, et al., Circulation 1999; 99: 620-625. Ultegra® assays were performed in duplicate. An electronic quality control test was performed on each instrument every day of use prior to performing any subject samples.

Compound: CC(O)CCC(=O)N(Cc1ccc(-c2ccccc2-c2nnn[nH]2)cc1)[C@H](C(=O)O)C(C)C (stereo partly drawn) [Valeryl 4-hydroxy valsartan, (S)-2{(4-Hydroxy-pentanoyl)-[2′-(1H-tetrazol-5-yl)-biphenyl-4-ylmethyl]amino}-3-methyl-butyric Acid]
- Expression of platelet/endothelial tetraspan antigen -3 (PETA-3, CD151) ([1]; drug 10 nM): 89.4 ± 18.2 log MFI
- Expression of platelet/endothelial tetraspan antigen -3 (PETA-3, CD151) ([1]; drug 100 nM): 92.7 ± 22.2 log MFI
- Expression of platelet/endothelial tetraspan antigen -3 (PETA-3, CD151) ([1]; drug 1 μM): 90.5 ± 15.7 log MFI
- Expression of platelet/endothelial tetraspan antigen -3 (PETA-3, CD151) ([1]; drug 10 μM): 84.2 ± 31.1 log MFI
- Expression of platelet/endothelial tetraspan antigen -3 (PETA-3, CD151) ([1]; drug 100 μM): 93.4 ± 27.4 log MFI
- Effect on PETA-3 (CD151) (in words) ([1]; whole blood flow cytometry): not associated with any effect
- Expression of lysosome associated membrane protein -2 (LAMP-2, CD107b) ([2]; drug 10 nM): 7.7 ± 3.8 log MFI
- Expression of lysosome associated membrane protein -2 (LAMP-2, CD107b) ([2]; drug 100 nM): 7.0 ± 3.0 log MFI
- Expression of lysosome associated membrane protein -2 (LAMP-2, CD107b) ([2]; drug 1 μM): 6.6 ± 3.4 log MFI
- Expression of lysosome associated membrane protein -2 (LAMP-2, CD107b) ([2]; drug 10 μM): 7.2 ± 3.9 log MFI
- Expression of lysosome associated membrane protein -2 (LAMP-2, CD107b) ([2]; drug 100 μM): 7.1 ± 2.9 log MFI
- Effect on LAMP-2 (CD107b) (in words) ([2]; whole blood flow cytometry): not associated with any effect
- Expression of glycoprotein Ib (GPIb, CD42b) ([3]; drug 10 nM): 236.4 ± 18.7 log MFI
- Expression of glycoprotein Ib (GPIb, CD42b) ([3]; drug 100 nM): 267.9 ± 39.4 log MFI
- Expression of glycoprotein Ib (GPIb, CD42b) ([3]; drug 1 μM): 255.5 ± 24.8 log MFI
- Expression of glycoprotein Ib (GPIb, CD42b) ([3]; drug 10 μM): 249.7 ± 41.8 log MFI
- Expression of glycoprotein Ib (GPIb, CD42b) ([3]; drug 100 μM): 248.1 ± 19.5 log MFI
- Effect on GP Ib (CD42) (in words) ([3]; whole blood flow cytometry): not associated with any effect
- Effect on ADP-induced platelet aggregation (in words) ([4]; PRP, 5 μM ADP, preincubation with escalating doses 10 nM to 100 μM): did not have any effect
- Platelet rich plasma aggregation induced by 5 μM ADP ([4]; drug 10 nM): 75 ± 6%
- Platelet rich plasma aggregation induced by 5 μM ADP ([4]; drug 100 nM): 76 ± 8%
- Platelet rich plasma aggregation induced by 5 μM ADP ([4]; drug 1 μM): 77 ± 9%
- Platelet rich plasma aggregation induced by 5 μM ADP ([4]; drug 10 μM): 76 ± 8%
- Platelet rich plasma aggregation induced by 5 μM ADP ([4]; drug 100 μM): 77 ± 9%
- Formation of platelet-leukocyte microparticles (CD151 + CD14) ([5]; drug 10 nM): 99.4 ± 29.7 log MFI
- Formation of platelet-leukocyte microparticles (CD151 + CD14) ([5]; drug 100 nM): 94.3 ± 18.7 log MFI
- Formation of platelet-leukocyte microparticles (CD151 + CD14) ([5]; drug 1 μM): 90.7 ± 20.5 log MFI
- Formation of platelet-leukocyte microparticles (CD151 + CD14) ([5]; drug 10 μM): 89.2 ± 18.7 log MFI
- Formation of platelet-leukocyte microparticles (CD151 + CD14) ([5]; drug 100 μM): 95.6 ± 19.9 log MFI
- Effect on platelet-leukocyte microparticles (CD151+14) (in words) ([5]; whole blood flow cytometry): not associated with any effect
- Expression of lysosome associated membrane protein -1 (LAMP-1, CD107a) ([6]; drug 10 nM): 10.2 ± 3.6 log MFI
- Expression of lysosome associated membrane protein -1 (LAMP-1, CD107a) ([6]; drug 100 nM): 9.0 ± 4.0 log MFI
- Expression of lysosome associated membrane protein -1 (LAMP-1, CD107a) ([6]; drug 1 μM): 6.6 ± 2.9 log MFI
- Expression of lysosome associated membrane protein -1 (LAMP-1, CD107a) ([6]; drug 10 μM): 5.8 ± 3.2 log MFI
- Expression of lysosome associated membrane protein -1 (LAMP-1, CD107a) ([6]; drug 100 μM): 8.0 ± 3.4 log MFI
- Expression of P-selectin (CD 62p) (P-selectin (CD 62p); drug 10 nM): 9.3 ± 4.3 % of cell positivity
- Expression of P-selectin (CD 62p) (P-selectin (CD 62p); drug 100 nM): 10.2 ± 5.4 % of cell positivity
- Expression of P-selectin (CD 62p) (P-selectin (CD 62p); drug 1 μM): 7.3 ± 3.7 % of cell positivity
- Expression of P-selectin (CD 62p) (P-selectin (CD 62p); drug 10 μM): 6.9 ± 4.2 % of cell positivity
- Expression of P-selectin (CD 62p) (P-selectin (CD 62p); drug 100 μM): 8.9 ± 3.8 % of cell positivity
- Effect on P-selectin on platelet surface (in words) (P-selectin (CD 62p); whole blood flow cytometry): significantly diminished
- Expression of platelet glycoprotein IIb/IIIa antigen (GPIIb, CD41) ([7]; drug 10 nM): 505.6 ± 77.8 log MFI
- Expression of platelet glycoprotein IIb/IIIa antigen (GPIIb, CD41) ([7]; drug 100 nM): 432.7 ± 116.8 log MFI
- Expression of platelet glycoprotein IIb/IIIa antigen (GPIIb, CD41) ([7]; drug 1 μM): 427.2 ± 114.1 log MFI
- Expression of platelet glycoprotein IIb/IIIa antigen (GPIIb, CD41) ([7]; drug 10 μM): 515.9 ± 156.2 log MFI
- Expression of platelet glycoprotein IIb/IIIa antigen (GPIIb, CD41) ([7]; drug 100 μM): 529.3 ± 121.8 log MFI
- Effect on expression of GP IIb/IIIa (CD 41) (in words) ([7]; whole blood flow cytometry): slightly reduced
- Ultegra Analyzer ([8]; drug 10 nM): 177 ± 23 platelet activation units
- Ultegra Analyzer ([8]; drug 100 nM): 181 ± 31 platelet activation units
- Ultegra Analyzer ([8]; drug 1 μM): 134 ± 29 platelet activation units
- Ultegra Analyzer ([8]; drug 10 μM): 119 ± 38 platelet activation units
- Ultegra Analyzer ([8]; drug 100 μM): 168 ± 35 platelet activation units
